This note sets out measurements from US20220409619A1, “INHIBITORS OF HUMAN IMMUNODEFICIENCY VIRUS REPLICATION” (VIIV HEALTHCARE UK (No. 5) LIMITED, priority 2019, published 2022).

The test system of data set [1] is recombinant NL4-3 virus (nef section replaced with Renilla luciferase gene) in MT-2 cells. The data set is described as follows: HIV cell culture assay (antiviral activity, luciferase readout). The data set is classed as cell-based. The conditions noted are these: Renilla, NL43. The essentials: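 MT-2 cells were infected for 4-5 days with 293T-derived NL4-3 Renilla-luciferase reporter virus in the presence of serial compound dilutions. Luciferase was read with EnduRen live-cell substrate. EC50 was fitted with the median effect equation.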

Data set [2] can be described thus: Compound cytotoxicity, XTT-based colorimetric assay. The conditions noted are these: human; uninfected MT2 cells, day 4, XTT-based colorimetric assay. The data set is classed as cell-based. The method in brief:
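Run under the antiviral-assay protocol but without virus. Viability was read on day 4 and CC50 values were derived from the readout.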

What is called EC50 is the midpoint of the concentration-response curve. Broadly, the CC50 is the concentration giving 50% cytotoxicity. High values mean better tolerance by the cells, low ones harm at low concentration. As to `CCOc1cnc(-c2cc(=O)n(-c3ccc(Cl)c4c(NS(C)(=O)=O)nn(C)c34)c([C@H](Cc3cc(F)cc(F)c3)NC(=O)Cn3nc(C(F)F)c4c3C(F)(F)[C@@H]3C[C@H]43)n2)nc1` (atropisomer, axis not shown; (aR)) [Example 14, N-((S)-1-((1′P)-1′-(4-chloro-1-methyl-3-(methylsulfonamido)-1H-indazol-7-yl)-5-ethoxy-6′-oxo-1′,6′-dihydro-[2,4′-bipyrimidin]-2′-yl)-2-(3,5-difluorophenyl)ethyl)-2-((3bS,4aR)-3-(difluoromethyl)-5,5-difluoro-3b,4,4a,5-tetrahydro-1H-cyclopropa[3,4]cyclopenta[1,2-c]pyrazol-1-yl)acetamide], the EC50 in data set [1] is 0.042 nM. In addition, the CC50 at 4 days in data set [2] is greater than 100 nM.

Regarding `O=C(Cn1nc(C(F)(F)F)c2c1C(F)(F)[C@@H]1C[C@H]21)N[C@@H](Cc1cc(F)cc(F)c1)c1nc(-c2nccc(C(F)F)n2)cc(=O)n1-c1ccc(Cl)c2c(NS(=O)(=O)C3CC3)nn(CC(F)F)c12` (atropisomer, axis not shown; (aR)) [Example 32, N-((S)-1-((1′P)-1′-(4-chloro-3-(cyclopropanesulfonamido)-1-(2,2-difluoroethyl)-1H-indazol-7-yl)-4-(difluoromethyl)-6′-oxo-1′,6′-dihydro-[2,4′-bipyrimidin]-2′-yl)-2-(3,5-difluorophenyl)ethyl)-2-((3bS,4aR)-5,5-difluoro-3-(trifluoromethyl)-3b,4,4a,5-tetrahydro-1H-cyclopropa[3,4]cyclopenta[1,2-c]pyrazol-1-yl)acetamide], in data set [1], the concentration for a half-maximal effect (EC50) was determined as 0.3 nM. Also, the CC50 at 4 days in data set [2] is greater than 100 nM.

`CCOc1ncc(-c2cc(=O)n(-c3ccc(Cl)c4c(NS(C)(=O)=O)nn(C)c34)c([C@H](Cc3cc(F)cc(F)c3)NC(=O)Cn3nc(C(F)F)c4c3C(F)(F)[C@@H]3C[C@H]43)n2)cn1` (atropisomer, axis not shown; (P)) [Example 11, N-((S)-1-((1P)-1-(4-chloro-1-methyl-3-(methylsulfonamido)-1H-indazol-7-yl)-2′-ethoxy-6-oxo-1,6-dihydro-[4,5′-bipyrimidin]-2-yl)-2-(3,5-difluorophenyl)ethyl)-2-((3bS,4aR)-3-(difluoromethyl)-5,5-difluoro-3b,4,4a,5-tetrahydro-1H-cyclopropa[3,4]cyclopenta[1,2-c]pyrazol-1-yl)acetamide]: the EC50 in data set [1] was determined as 0.81 nM. In addition, the CC50 at 4 days in data set [2] was greater than 100 nM.

For the molecule `O=C(Cn1nc(C(F)F)c2c1C(F)(F)[C@@H]1C[C@H]21)N[C@@H](Cc1cc(F)cc(F)c1)c1nc(-c2cnccn2)cc(=O)n1-c1ccc(Cl)c2c(NS(=O)(=O)C3CC3)nn(CC(F)F)c12` (atropisomer, axis not shown; (P)) [Example 50, N-((S)-1-((1P)-1-(4-chloro-3-(cyclopropanesulfonamido)-1-(2,2-difluoroethyl)-1H-indazol-7-yl)-6-oxo-4-(pyrazin-2-yl)-1,6-dihydropyrimidin-2-yl)-2-(3,5-difluorophenyl)ethyl)-2-((3bS,4aR)-3-(difluoromethyl)-5,5-difluoro-3b,4,4a,5-tetrahydro-1H-cyclopropa[3,4]cyclopenta[1,2-c]pyrazol-1-yl)acetamide], the half-maximal effective concentration (EC50) in data set [1] amounted to 0.81 nM. The molecule further returned a CC50 at 4 days in data set [2] greater than 100 nM.

For the molecule `Cn1nc(NS(C)(=O)=O)c2c(Cl)ccc(-n3c([C@H](Cc4cc(F)cc(F)c4)NC(=O)Cn4nc(C(F)F)c5c4C(F)(F)[C@@H]4C[C@H]54)nc(-c4csc(C(C)(C)O)n4)cc3=O)c21` (atropisomer, axis not shown; (P)) [Example 18, N-((S)-1-((1P)-1-(4-chloro-1-methyl-3-(methylsulfonamido)-1H-indazol-7-yl)-4-(2-(2-hydroxypropan-2-yl)thiazol-4-yl)-6-oxo-1,6-dihydropyrimidin-2-yl)-2-(3,5-difluorophenyl)ethyl)-2-((3bS,4aR)-3-(difluoromethyl)-5,5-difluoro-3b,4,4a,5-tetrahydro-1H-cyclopropa[3,4]cyclopenta[1,2-c]pyrazol-1-yl)acetamide], the EC50 in data set [1] amounted to 0.47 nM. Further, the CC50 at 4 days in data set [2] was greater than 100 nM.

In the case of `Cn1nc(NS(C)(=O)=O)c2c(Cl)ccc(-n3c([C@H](Cc4cc(F)cc(F)c4)NC(=O)Cn4nc(C(F)F)c5c4C(F)(F)[C@@H]4C[C@H]54)nc(-c4cnccn4)cc3=O)c21` (atropisomer, axis not shown; (P)) [Example 20, N-((S)-1-((1P)-1-(4-chloro-1-methyl-3-(methylsulfonamido)-1H-indazol-7-yl)-6-oxo-4-(pyrazin-2-yl)-1,6-dihydropyrimidin-2-yl)-2-(3,5-difluorophenyl)ethyl)-2-((3bS,4aR)-3-(difluoromethyl)-5,5-difluoro-3b,4,4a,5-tetrahydro-1H-cyclopropa[3,4]cyclopenta[1,2-c]pyrazol-1-yl)acetamide], the EC50 in data set [1] amounted to 0.16 nM. This molecule also gave a CC50 at 4 days in data set [2] greater than 100 nM.

Regarding `COC(C)(C)C#Cc1cc(=O)n(-c2ccc(Cl)c3c(NS(=O)(=O)C4CC4)nn(CC(F)F)c23)c([C@H](Cc2cc(F)cc(F)c2)NC(=O)Cn2nc(C(F)(F)F)c3c2C(F)(F)[C@@H]2C[C@H]32)n1` (atropisomer, axis not shown; (P)) [Example 45, N-((S)-1-((1P)-1-(4-chloro-3-(cyclopropanesulfonamido)-1-(2,2-difluoroethyl)-1H-indazol-7-yl)-4-(3-methoxy-3-methylbut-1-yn-1-yl)-6-oxo-1,6-dihydropyrimidin-2-yl)-2-(3,5-difluorophenyl)ethyl)-2-((3bS,4aR)-5,5-difluoro-3-(trifluoromethyl)-3b,4,4a,5-tetrahydro-1H-cyclopropa[3,4]cyclopenta[1,2-c]pyrazol-1-yl)acetamide], the EC50 in data set [1] worked out at 0.12 nM. The CC50 at 4 days in data set [2] is greater than 100 nM.

As to `COc1cncc(-c2cc(=O)n(-c3ccc(Cl)c4c(NS(=O)(=O)C5CC5)nn(CC(F)F)c34)c([C@H](Cc3cc(F)cc(F)c3)NC(=O)Cn3nc(C(F)F)c4c3C(F)(F)[C@@H]3C[C@H]43)n2)n1` (atropisomer, axis not shown; (P)) [Example 40, N-((S)-1-((1P)-1-(4-chloro-3-(cyclopropanesulfonamido)-1-(2,2-difluoroethyl)-1H-indazol-7-yl)-4-(6-methoxypyrazin-2-yl)-6-oxo-1,6-dihydropyrimidin-2-yl)-2-(3,5-difluorophenyl)ethyl)-2-((3bS,4aR)-3-(difluoromethyl)-5,5-difluoro-3b,4,4a,5-tetrahydro-1H-cyclopropa[3,4]cyclopenta[1,2-c]pyrazol-1-yl)acetamide], the EC50 in data set [1] came to 0.6 nM. The molecule further registered a CC50 at 4 days in data set [2] greater than 100 nM.

As for `Cn1nc(C(F)(F)F)cc1-c1cc(=O)n(-c2ccc(Cl)c3c(NS(C)(=O)=O)nn(C)c23)c([C@H](Cc2cc(F)cc(F)c2)NC(=O)Cn2nc(C(F)F)c3c2C(F)(F)[C@@H]2C[C@H]32)n1` (atropisomer, axis not shown; (P)) [Example 19, N-((S)-1-((1P)-1-(4-chloro-1-methyl-3-(methylsulfonamido)-1H-indazol-7-yl)-4-(1-methyl-3-(trifluoromethyl)-1H-pyrazol-5-yl)-6-oxo-1,6-dihydropyrimidin-2-yl)-2-(3,5-difluorophenyl)ethyl)-2-((3bS,4aR)-3-(difluoromethyl)-5,5-difluoro-3b,4,4a,5-tetrahydro-1H-cyclopropa[3,4]cyclopenta[1,2-c]pyrazol-1-yl)acetamide], the EC50 in data set [1] stood at 0.74 nM. Besides, the CC50 at 4 days in data set [2] is greater than 100 nM.

In the case of `Cn1nc(NS(C)(=O)=O)c2c(Cl)ccc(-n3c([C@H](Cc4cc(F)cc(F)c4)NC(=O)Cn4nc(C(F)F)c5c4C(F)(F)[C@@H]4C[C@H]54)nc(-c4cccc(C(F)(F)F)n4)cc3=O)c21` (atropisomer, axis not shown; (P)) [Example 7, N-((S)-1-((1P)-1-(4-chloro-1-methyl-3-(methylsulfonamido)-1H-indazol-7-yl)-6-oxo-4-(6-(trifluoromethyl)pyridin-2-yl)-1,6-dihydropyrimidin-2-yl)-2-(3,5-difluorophenyl)ethyl)-2-((3bS,4aR)-3-(difluoromethyl)-5,5-difluoro-3b,4,4a,5-tetrahydro-1H-cyclopropa[3,4]cyclopenta[1,2-c]pyrazol-1-yl)acetamide], in data set [1], the EC50 was 0.53 nM. For the same molecule, the CC50 at 4 days in data set [2] was greater than 100 nM.

Consider `Cn1nc(NS(C)(=O)=O)c2c(Cl)ccc(-n3c([C@H](Cc4cc(F)cc(F)c4)NC(=O)Cn4nc(C(F)F)c5c4C(F)(F)[C@@H]4C[C@H]54)nc(-c4csc(S(C)(=O)=O)n4)cc3=O)c21` (atropisomer, axis not shown; (P)) [Example 17, N-((S)-1-((1P)-1-(4-chloro-1-methyl-3-(methylsulfonamido)-1H-indazol-7-yl)-4-(2-(methylsulfonyl)thiazol-4-yl)-6-oxo-1,6-dihydropyrimidin-2-yl)-2-(3,5-difluorophenyl)ethyl)-2-((3bS,4aR)-3-(difluoromethyl)-5,5-difluoro-3b,4,4a,5-tetrahydro-1H-cyclopropa[3,4]cyclopenta[1,2-c]pyrazol-1-yl)acetamide], for which the EC50 in data set [1] was 0.81 nM. Moreover, the CC50 at 4 days in data set [2] was greater than 100 nM.

Turning to `CC(C)(C#Cc1cc(=O)n(-c2ccc(Cl)c3c(NS(=O)(=O)C4CC4)nn(CC(F)F)c23)c([C@H](Cc2cc(F)cc(F)c2)NC(=O)Cn2nc(C(F)F)c3c2C(F)(F)[C@@H]2C[C@H]32)n1)S(C)(=O)=O` (atropisomer, axis not shown; (P)) [Example 47, N-((S)-1-((1P)-1-(4-chloro-3-(cyclopropanesulfonamido)-1-(2,2-difluoroethyl)-1H-indazol-7-yl)-4-(3-methyl-3-(methylsulfonyl)but-1-yn-1-yl)-6-oxo-1,6-dihydropyrimidin-2-yl)-2-(3,5-difluorophenyl)ethyl)-2-((3bS,4aR)-3-(difluoromethyl)-5,5-difluoro-3b,4,4a,5-tetrahydro-1H-cyclopropa[3,4]cyclopenta[1,2-c]pyrazol-1-yl)acetamide], the concentration for a half-maximal effect (EC50) in data set [1] came out at 0.047 nM. This molecule gave a CC50 at 4 days in data set [2] greater than 100 nM.
